Measured values published in article doi:10.1101/2021.10.07.463234v2 (biorxiv, 2021).
Structures can show the parent of a compound that is named as a salt.

Target: SARS-CoV-2 Mac1 (Severe acute respiratory syndrome coronavirus 2, UniProt P0DTD1)
Assay: biochemical
Details: 100 µM; inhibitor

Row | SMILES | %inhibition
1 | CCCC(CCC)C(=O)O [Valproic acid sodium salt (Sodium valproate)] | 16.22%
2 | CCCC(CCC)C(=O)O [Valproic acid] | 0%
3 | COc1ccc(C(CN(C)C)C2(O)CCCCC2)cc1 (centres unmarked) [Venlafaxine HCl] | 0%
4 | Nc1ncnc2c1ncn2[C@@H]1O[C@H](CO)[C@@H](O)[C@@H]1O [Vidarabine] | 17.83%
5 | O=C1O[C@H]([C@@H](O)CO)C(O)=C1O [Vitamin C] | 15.62%
6 | Cc1ccc(Sc2ccccc2N2CCNCC2)c(C)c1 [Vortioxetine (Lu AA21004) HBr] | 12.23%
7 | Cc1ccc(Sc2ccccc2N2CCNCC2)c(C)c1 [Vortioxetine] | 4.926%
8 | Cc1cn([C@H]2C[C@H](N=[N+]=[N-])[C@@H](CO)O2)c(=O)[nH]c1=O [Zidovudine] | 8.703%
9 | CCN1CCN(Cc2ccc(Nc3ncc(F)c(-c4cc(F)c5nc(C)n(C(C)C)c5c4)n3)nc2)CC1 [abemaciclib (LY2835219)] | 4.001%

Same assay, conditions: read-out: %inhibition

Row | SMILES | inhibition at 100 µM
10 | Cn1ncc(Cl)c1-c1cc(C(=O)N[C@H](CN)Cc2ccc(F)c(F)c2)oc1Cl [Uprosertib (GSK2141795)] | 0%
11 | O=c1cc[nH]c(=O)[nH]1 [Uracil] | 0%
12 | COc1ccccc1N1CCN(CCCNc2cc(=O)n(C)c(=O)n2C)CC1 [Urapidil HCl] | 2.64%
13 | CCOC(N)=O [Urethane] | 0%
14 | O=c1ccn([C@@H]2O[C@H](CO)[C@@H](O)[C@H]2O)c(=O)[nH]1 [Uridine] | 0%
15 | C[C@H](CCC(=O)O)[C@H]1CC[C@H]2[C@@H]3[C@@H](O)C[C@@H]4C[C@H](O)CC[C@]4(C)[C@H]3CC[C@]12C [Ursodiol] | 0%
16 | Cc1ccc(NC(=O)C2(c3ccc4c(c3)OC(F)(F)O4)CC2)nc1-c1cccc(C(=O)O)c1 [VX-809 (Lumacaftor)] | 0%
17 | CC(C)[C@H](N)C(=O)OCCOCn1cnc2c(=O)nc(N)[nH]c21 [Valaciclovir HCl] | 39.4%
18 | COc1cc2c(cc1OC)[C@H]1C[C@@H](OC(=O)[C@@H](N)C(C)C)[C@H](CC(C)C)CN1CC2 [Valbenazine tosylate] | 13.2%
19 | Cc1onc(-c2ccccc2)c1-c1ccc(S(N)(=O)=O)cc1 [Valdecoxib] | 9.12%
20 | CC(C)[C@H](N)C(=O)OCC(CO)OCn1cnc2c(=O)nc(N)[nH]c21 (some centres unmarked) [Valganciclovir HCl] | 0%
21 | C=C[C@]1(C)C[C@@H](OC(=O)CSC(C)(C)CNC(=O)[C@H](N)C(C)C)[C@]2(C)[C@H](C)CC[C@]3(CCC(=O)[C@H]32)[C@@H](C)[C@@H]1O [Valnemulin HCl] | 23.1%
22 | CCCC(CCC)C(N)=O [Valpromide] | 13.2%
23 | CCCCC(=O)N(Cc1ccc(-c2ccccc2-c2nnn[nH]2)cc1)[C@H](C(=O)O)C(C)C [Valsartan] | 31.1%
24 | CN[C@H](CC(C)C)C(=O)N[C@H]1C(=O)N[C@@H](CC(N)=O)C(=O)N[C@H]2C(=O)N[C@H]3C(=O)N[C@H](C(=O)N[C@H](C(=O)O)c4cc(O)cc(O)c4-c4cc3ccc4O)[C@H](O)c3ccc(c(Cl)c3)Oc3cc2cc(c3O[C@@H]2O[C@H](CO)[C@@H](O)[C@H](O)[C@H]2O[C@H]2C[C@](C)(N)[C@H](O)[C@H](C)O2)Oc2ccc(cc2Cl)[C@H]1O [Vancomycin HCl] | 0%
25 | COc1cc2/c(=N/c3ccc(Br)cc3F)nc[nH]c2cc1OCC1CCN(C)CC1 [Vandetanib (ZD6474)] | 35.2%
26 | CCCc1nc(C)c2c(O)nc(-c3cc(S(=O)(=O)N4CCN(CC)CC4)ccc3OCC)nn12 [Vardenafil HCl Trihydrate] | 3.9%
27 | c1cnc2cc3c(cc2n1)[C@@H]1CNC[C@H]3C1 [Varenicline Tartrate] | 0%
28 | C[C@@H]1COC(Nc2ccc3ncnc(Nc4ccc(OCc5nccs5)c(Cl)c4)c3c2)=N1 [Varlitinib] | 0%
29 | Clc1ccc(Nc2nnc(Cc3ccncc3)c3ccccc23)cc1 [Vatalanib (PTK787) 2HCl] | 0%
30 | CC(=O)O[C@H]1C[C@@H]2CC[C@@H]3[C@H](CC[C@@]4(C)[C@H]3C[C@H]([N+]3(C)CCCCC3)[C@@H]4OC(C)=O)[C@@]2(C)C[C@@H]1N1CCCCC1 [Vecuronium Bromide] | 0%

Row | SMILES | inhibition at 100 µM
31 | C[C@]1(c2nc3c(C(N)=O)cccc3[nH]2)CCCN1 [Veliparib (ABT-888)] | 54.3%
32 | COC[C@H]1C[C@@H](c2nc(-c3ccc4c(c3)COc3cc5c(ccc6nc([C@@H]7CC[C@H](C)N7C(=O)[C@@H](NC(=O)OC)C(C)C)[nH]c65)cc3-4)c[nH]2)N(C(=O)[C@H](NC(=O)OC)c2ccccc2)C1 [Velpatasvir] | 3.54%
33 | CCCS(=O)(=O)Nc1ccc(F)c(C(=O)c2c[nH]c3ncc(-c4ccc(Cl)cc4)cc23)c1F [Vemurafenib (PLX4032, RG7204)] | 2.37%
34 | Nc1ncnc2c1ncn2[C@@H]1O[C@H](CO)[C@@H](O)[C@@H]1O [Vidarabine monohydrate] | 9.49%
35 | COc1cccc(-c2ccc(NC(=O)C3=C(C(=O)O)CCC3)c(F)c2)c1 [Vidofludimus] | 19.8%
36 | N#Cc1ccc2[nH]cc(CCCCN3CCN(c4ccc5oc(C(N)=O)cc5c4)CC3)c2c1 [Vilazodone HCl] | 9.5%
37 | N#C[C@@H]1CCCN1C(=O)CNC12CC3CC(CC(O)(C3)C1)C2 [Vildagliptin (LAF-237)] | 11.7%
38 | CC[C@]1(O)C[C@@H]2CN(CCc3c([nH]c4ccccc34)[C@@](C(=O)OC)(c3cc4c(cc3OC)N(C)[C@H]3[C@@](O)(C(=O)OC)[C@H](OC(C)=O)[C@]5(CC)C=CCN6CC[C@]43[C@@H]65)C2)C1 [Vinblastine sulfate] | 1.94%
39 | CC[C@]12CCCN3CCc4c(n(c5ccccc45)[C@@](O)(C(=O)OC)C1)[C@@H]32 [Vincamine] | 13.7%
40 | CC[C@]1(O)C[C@H]2CN(CCc3c([nH]c4ccccc34)[C@@](C(=O)OC)(c3cc4c(cc3OC)N(C=O)[C@H]3[C@@](O)(C(=O)OC)[C@H](OC(C)=O)[C@]5(CC)C=CCN6CC[C@]43[C@@H]65)C2)C1 [Vincristine sulfate] | 42.2%
41 | CCOC(=O)C1=C[C@]2(CC)CCCN3CCc4c(n1c1ccccc41)[C@@H]32 [Vinpocetine] | 1.15%
42 | CS(=O)(=O)c1ccc(C(=O)Nc2ccc(Cl)c(-c3ccccn3)c2)c(Cl)c1 [Vismodegib (GDC-0449)] | 0%
43 | CC(=O)OC/C=C(C)/C=C/C=C(C)/C=C/C1=C(C)CCCC1(C)C [Vitamin A Acetate] | 4.44%
44 | CC1=C(/C=C/C(C)=C/C=C/C(C)=C/CO)C(C)(C)CCC1 [Vitamin A] | 2.61%
45 | C=C1CC[C@H](O)C/C1=C/C=C1\CCC[C@]2(C)[C@@H]([C@H](C)/C=C/[C@H](C)C(C)C)CC[C@@H]12 [Vitamin D2] | 0%
46 | CC(=O)Oc1c(C)c(C)c2c(c1C)CCC(C)(CCC[C@H](C)CCC[C@H](C)CCCC(C)C)O2 (some centres unmarked) [Vitamin E Acetate] | 0%
47 | CC1=C(C/C=C(\C)CCC[C@H](C)CCC[C@H](C)CCCC(C)C)C(=O)c2ccccc2C1=O [Vitamin K1] | 19.5%
48 | OCC(CO)N[C@H]1C[C@](O)(CO)[C@@H](O)[C@H](O)[C@H]1O [Voglibose] | 7.63%
49 | CC[C@@H]1C(=O)N(C)c2cnc(Nc3ccc(C(=O)N[C@H]4CC[C@H](N5CCN(CC6CC6)CC5)CC4)cc3OC)nc2N1C(C)C [Volasertib (BI 6727)] | 0%
50 | CNCc1cc(-c2ccccc2F)n(S(=O)(=O)c2cccnc2)c1 [Vonoprazan Fumarate (TAK-438)] | 0%
51 | CCOC(=O)N[C@@H]1CC[C@@H]2[C@@H](C1)C[C@H]1C(=O)O[C@H](C)[C@H]1[C@H]2/C=C/c1ccc(-c2cccc(F)c2)cn1 [Vorapaxar] | 0%

Row | SMILES | inhibition at 100 µM
52 | C[C@@H](c1ncncc1F)[C@](O)(Cn1cncn1)c1ccc(F)cc1F [Voriconazole] | 0%
53 | O=C(CCCCCCC(=O)Nc1ccccc1)NO [Vorinostat (SAHA, MK0683)] | 0%
54 | Cc1cccc(C)c1NC1=NCCCS1 [Xylazine HCl] | 25.3%
55 | OC[C@@H](O)[C@H](O)[C@@H](O)CO [Xylitol] | 0%
56 | Cc1cc(C(C)(C)C)cc(C)c1CC1=NCCN1 [Xylometazoline HCl] | 9.99%
57 | O=C[C@H](O)[C@@H](O)[C@H](O)CO [Xylose] | 0%
58 | COCC[n+]1c2c(n(Cc3cnccn3)c1C)C(=O)c1ccccc1C2=O [YM155 (Sepantronium Bromide)] | 0%
59 | COC(=O)[C@@H]1[C@H]2C[C@H]3c4[nH]c5ccccc5c4CCN3C[C@@H]2CC[C@@H]1O [Yohimbine HCl] | 0%
60 | COc1cc(C(=O)NS(=O)(=O)c2ccccc2C)ccc1Cc1cn(C)c2ccc(NC(=O)OC3CCCC3)cc12 [Zafirlukast] | 0%
61 | Nc1ccn([C@H]2CC[C@@H](CO)O2)c(=O)n1 [Zalcitabine] | 19.2%
62 | CC(C(=O)O)c1ccc2c(c1)CC(=O)c1ccccc1S2 (centres unmarked) [Zaltoprofen] | 16.4%
63 | CC(=O)N[C@H]1[C@H]([C@H](O)[C@H](O)CO)OC(C(=O)O)=C[C@@H]1NC(=N)N [Zanamivir] | 0%
64 | COc1nc(C)cnc1NS(=O)(=O)c1cccnc1-c1ccc(-c2nnco2)cc1 [Zibotentan (ZD4054)] | 7.65%
65 | CC(c1cc2ccccc2s1)N(O)C(N)=O (centres unmarked) [Zileuton] | 0%
66 | O=C1Cc2cc(CCN3CCN(c4nsc5ccccc45)CC3)c(Cl)cc2N1 [Ziprasidone HCl] | 0%
67 | C[C@H](CSC(=O)c1ccccc1)C(=O)N1C[C@@H](Sc2ccccc2)C[C@H]1C(=O)O [Zofenopril calcium] | 10.7%
68 | CN(C)CCc1c[nH]c2ccc(C[C@H]3COC(=O)N3)cc12 [Zolmitriptan] | 0%
69 | NS(=O)(=O)Cc1noc2ccccc12 [Zonisamide] | 0%
70 | O[C@@H](COc1cccc2ncccc12)CN1CCN(C2c3ccccc3[C@@H]3[C@H](c4ccccc42)C3(F)F)CC1 (some centres unmarked) [Zosuquidar (LY335979) 3HCl] | 0%
71 | O[C@H]1[C@H](O)[C@@H](O)[C@H](O)[C@@H](O)[C@H]1O [i-Inositol] | 0%
